Source: ChEMBL document CHEMBL1133977, “Robinlin: a novel bioactive homo-monoterpene from Robinia pseudoacacia L. (Fabaceae)” (Bioorg Med Chem Lett, 2001)
≈ marks a conversion by molar mass, not a printed value.

Key:
A498 = assay: In vitro cytotoxic activity against A-498 (human kidney carcinoma) cell line; type: functional; conditions: read-out: ED50 (the source's name)
A549 = assay: In vitro cytotoxic activity against A-549 (human lung carcinoma) cell line; type: functional; conditions: read-out: ED50 (the source's name)
HT-29 = assay: In vitro cytotoxic activity against HT-29 (human colon adenocarcinoma) cell line; type: functional; conditions: read-out: ED50 (the source's name)
MCF7 = assay: In vitro cytotoxic activity against MCF-7 (human breast carcinoma) cell line; type: functional; conditions: read-out: ED50 (the source's name)
MIA PaCa-2 = assay: In vitro cytotoxic activity against PACA-2 (human pancreatic carcinoma) cell line; type: functional; conditions: read-out: ED50 (the source's name)
PC-3 = assay: In vitro cytotoxic activity against PC-3 (human prostate adenocarcinoma) cell line; type: functional; conditions: read-out: ED50 (the source's name)
[1] = Activity in brine shrimp lethality test (BST); type: organism-based; conditions: artemia, in vivo

CC1=C(CCO)C(C)(C)C[C@@H](O)C1=O
EC50 (A498): > 100000 ng/mL | EC50 (A549): 47000 ng/mL (≈ 237 µM) | EC50 (HT-29): 52000 ng/mL (≈ 262 µM) | EC50 (MCF7): 46000 ng/mL (≈ 232 µM) | EC50 (MIA PaCa-2): > 100000 ng/mL | EC50 (PC-3): > 100000 ng/mL | LC50 [1]: 4900 ng/mL (≈ 24.7 µM)

COc1cccc2c1C(=O)c1c(O)c3c(c(O)c1C2=O)C[C@@](O)(C(=O)CO)C[C@@H]3O[C@H]1C[C@H](N)[C@H](O)[C@H](C)O1 [DOXORUBICIN]
EC50 (A498): 0.46 ng/mL (≈ 0.000846 µM) | EC50 (A549): 0.21 ng/mL (≈ 0.000386 µM) | EC50 (HT-29): 1.3 ng/mL (≈ 0.00239 µM) | EC50 (MCF7): 5.8 ng/mL (≈ 0.0107 µM) | EC50 (MIA PaCa-2): 0.18 ng/mL (≈ 0.000331 µM) | EC50 (PC-3): 0.24 ng/mL (≈ 0.000442 µM)
